Measurements: patent US20040202638A1, “Substance capable of potentiating laminin 5 productivity in epidermal cells and utilization thereof” (priority 2001, published 2004)

Test system: laminin 5
Experiment: Laminin 5 productivity evaluation test (keratinocyte culture, sandwich ELISA)
Type: cell-based, human
Settings: for laminin 5 productivity potentiating action: result in words
Method: (1) Culture of Keratinocytes
Keratinocytes were isolated from the human preputium and cultured in an epidermal cell growth medium (KGM) having a low calcium concentration. To this culture medium were added bovine pituitary extract and EGF. After cultivation in KGM up to the fourth generation, the cells were treated with trypsin and EDTA to suspend adherent cells. Then, the culture was filtered to remove cell aggregates and thereby to obtain a homogeneous cell suspension. The cells were collected by centrifugation and resuspended in DMEM-F12 (2:I)-0.1% BSA so as to give a cell density of8×10^4 per ml. Each 0.5 ml of this cell suspension was added to 0.5 ml of the same medium containing a twofold concentration of each test sample. Using a 24-well plate, incubation was carried out at 37° C. for 24 hours. After completion of the incubation, the culture supernatant was transferred to an Eppendorf tube and centrifuged at 10,000 rpm for 5 minutes. The supernatant was transferred to a new tube and stored at −20° C. till the day for the determination of laminin 5. In order to solubilize laminin 5 in the cells and that bound to the culture plastics, a tris-HCl buffer (pH 7.4) containing various surfactants was added to each well and allowed to stand at −20° C. overnight. On the following day, the mixture was ultrasonicated and frozen again. On the following day, the mixture was thawed again and centrifuged at 10,000 rpm for 5 minutes. The supernatant was transferred to a tube and stored at −20° C. till the day for the determination of laminin 5.
(2) Determination of Laminin 5 by the Sandwich ELISA Method
Laminin 5 present in the culture supernatant and the cell layer was determined by the sandwich ELISA method. A monoclonal antibody (BM165) to the laminin α3 chain of laminin 5 was attached to a solid layer of a 96-well ELISA plate. In order to determine laminin 5 in sandwiched manner, a monoclonal antibody (6F12) to the laminin β3 chain was previously biotinized (b-6F12) and used as the other antibody. […] A sample was added to each of the wells in which a 3% gelatin-phosphate buffer solution containing b-6F12 had previously been placed. The final dilution ratio of the sample in the wells was ¼ for the culture medium and 1/10 for the cell layer. After the antigen-antibody reaction was carried out at 37° C. for 2 hours, the plate was washed, and an avidin HRP (horseradish peroxidase) solution was added thereto and reacted for a period of 30 minutes to 1 hour. After washing, a solution of ABTS serving as a substrate for HRP was added thereto and the absorbance at 405 nm was measured with an ELISA plate reader. A calibration curve was constructed over a range of 0 to 40 ng/ml.
The sum of the laminin 5 liberated into the culture medium and that remaining in the cell layer was calculated. The yield of laminin 5 was expressed by the relative value to that of the sample to which none of the plant extracts was added (control).

[1] = Table 3 (comparative example), concentration 1 μM
[2] = Table 3 (comparative example), concentration 10 μM
[3] = Table 3 (comparative example), concentration 100 μM

SMILES	Laminin 5 yield (%) Relative to the Control [1] [%]	Laminin 5 yield (%) Relative to the Control [2] [%]	Laminin 5 yield (%) Relative to the Control [3] [%]	laminin 5 productivity potentiating action	Laminin 5 yield (%) Relative to the Control (Table 2, concentration 1 μM) [%]	Laminin 5 yield (%) Relative to the Control (Table 2, concentration 10 μM) [%]	Laminin 5 yield (%) Relative to the Control (Table 2, concentration 0.1 μM) [%]
O=c1c(-c2ccc(O)cc2)coc2cc(O)ccc12 [Daidzein, 4′,7-dihydroxyisoflavone]	93	99	74	little or no laminin 5 productivity potentiating action	–	–	–
O=c1c(-c2ccc(O)c(O)c2)coc2c([C@@H]3O[C@H](CO)[C@@H](O)[C@H](O)[C@H]3O)c(O)ccc12 [Glucoside, 8-β-D-glucopyranosyl-7-hydroxy-3-(3′,4′-dihydroxyphenyl)-4H-1-benzopyran-4-one]	93	95	99	–	–	–	–
C[C@H]1[C@H](C)CC[C@]2(C)CC[C@]3(C)C4=C(CC[C@@]3(C)[C@H]12)[C@@]1(C)CC[C@H](O)C(C)(C)C1CC4 (stereo partly drawn) [Isobauerenol, isobauerenol]	–	–	–	exhibiting laminin 5 productivity potentiating action	132	137	–
C=C(C)[C@@H]1CC[C@]2(C)CC[C@]3(C)[C@H](CC[C@@H]4[C@@]5(C)CC[C@H](O)C(C)(C)[C@@H]5CC[C@]43C)[C@@H]12 [Lupeol, lupeol]	–	–	–	exhibiting laminin 5 productivity potentiating action	154	–	122
O=c1c(-c2ccc(O)cc2)coc2c([C@@H]3O[C@H](CO)[C@@H](O)[C@H](O)[C@H]3O)c(O)ccc12 [Puerarin, daidzein-8-glucoside]	–	–	–	little or no laminin 5 productivity potentiating action	–	–	–
O=c1c(-c2ccc(O)cc2)coc2cc(O[C@@H]3O[C@H](CO)[C@@H](O)[C@H](O)[C@H]3O)ccc12 [daidzin, daidzein-7-glucoside]	–	–	–	little or no laminin 5 productivity potentiating action	–	–	–
